# Measurements reported in patent US11104661B1, “Inhibiting human integrin (α-4) (β-7)” (Morphic Therapeutic, Inc., priority 2019, dated 2021).
# Read-outs that look alike come from different tables or passages of the source.
# Target: T1, α4β7 (Homo sapiens, UniProt P13612+P26010)
# T1 construct: endogenous in cells; host or cells: RPMI 8866 cells
# T1 sequence (P13612 34-1032): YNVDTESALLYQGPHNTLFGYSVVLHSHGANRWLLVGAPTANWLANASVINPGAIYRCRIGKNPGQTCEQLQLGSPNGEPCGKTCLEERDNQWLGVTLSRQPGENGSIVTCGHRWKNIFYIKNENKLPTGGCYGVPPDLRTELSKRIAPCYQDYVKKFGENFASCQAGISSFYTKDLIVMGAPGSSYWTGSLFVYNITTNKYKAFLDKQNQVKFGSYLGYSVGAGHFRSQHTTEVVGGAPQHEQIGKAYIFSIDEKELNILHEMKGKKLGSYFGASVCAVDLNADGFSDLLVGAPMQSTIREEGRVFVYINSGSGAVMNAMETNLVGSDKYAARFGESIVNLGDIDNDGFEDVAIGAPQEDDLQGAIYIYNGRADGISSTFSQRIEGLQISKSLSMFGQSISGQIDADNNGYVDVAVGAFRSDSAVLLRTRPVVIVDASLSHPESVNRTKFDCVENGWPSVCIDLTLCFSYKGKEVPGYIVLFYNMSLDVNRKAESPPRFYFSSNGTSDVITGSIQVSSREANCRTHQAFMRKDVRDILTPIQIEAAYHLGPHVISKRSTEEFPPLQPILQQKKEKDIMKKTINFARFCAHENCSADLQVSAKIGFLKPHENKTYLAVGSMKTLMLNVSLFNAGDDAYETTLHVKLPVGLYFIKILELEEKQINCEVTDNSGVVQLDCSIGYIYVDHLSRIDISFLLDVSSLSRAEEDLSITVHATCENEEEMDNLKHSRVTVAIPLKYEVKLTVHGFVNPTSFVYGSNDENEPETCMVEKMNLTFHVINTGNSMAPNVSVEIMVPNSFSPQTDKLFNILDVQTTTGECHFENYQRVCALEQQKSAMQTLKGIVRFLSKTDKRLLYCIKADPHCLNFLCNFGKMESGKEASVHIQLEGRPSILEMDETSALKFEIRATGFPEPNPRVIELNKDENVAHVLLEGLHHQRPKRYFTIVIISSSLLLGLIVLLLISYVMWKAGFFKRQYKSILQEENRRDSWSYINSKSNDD
# T1 sequence (P26010 20-798): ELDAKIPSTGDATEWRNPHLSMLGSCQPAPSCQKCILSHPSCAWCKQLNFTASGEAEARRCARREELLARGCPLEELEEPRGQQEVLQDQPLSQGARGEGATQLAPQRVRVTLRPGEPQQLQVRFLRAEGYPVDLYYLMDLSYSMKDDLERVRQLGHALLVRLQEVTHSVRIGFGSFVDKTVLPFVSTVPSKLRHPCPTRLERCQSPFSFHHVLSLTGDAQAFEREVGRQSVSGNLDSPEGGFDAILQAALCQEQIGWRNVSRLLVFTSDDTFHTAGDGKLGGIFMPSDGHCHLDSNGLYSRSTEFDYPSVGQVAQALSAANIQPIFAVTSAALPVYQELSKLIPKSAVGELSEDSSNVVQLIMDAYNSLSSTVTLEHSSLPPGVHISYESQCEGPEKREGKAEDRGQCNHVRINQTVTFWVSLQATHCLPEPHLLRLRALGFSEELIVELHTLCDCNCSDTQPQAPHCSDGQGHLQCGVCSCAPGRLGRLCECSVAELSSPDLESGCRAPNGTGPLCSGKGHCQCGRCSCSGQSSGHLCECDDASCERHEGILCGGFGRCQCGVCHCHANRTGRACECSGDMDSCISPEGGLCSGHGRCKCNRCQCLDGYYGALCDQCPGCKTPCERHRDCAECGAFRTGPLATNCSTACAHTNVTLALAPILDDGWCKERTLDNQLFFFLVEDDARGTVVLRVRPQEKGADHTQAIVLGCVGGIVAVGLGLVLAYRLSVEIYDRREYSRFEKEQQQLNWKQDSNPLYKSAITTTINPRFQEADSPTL
# Test: Cell adhesion assay, RPMI8866 cells on MAdCAM coated plates (Example 7)
# Format: cell-based
# Details: RPMI8866 cells adhering to recombinant human MAdCAM, read-out: CA Assay (Example 7)
# Experimental: Three in vitro assays were used to examine the α4β7 mechanistic process used by cells: 1) ligand:receptor affinity, 2) the avidity of those interactions on a cell's surface, and 3) how those interactions fare under an imposing force. In Example 5, a Fluorescence Polarization (FP) assay is used to measure compound activity through binding competition with the fluorescein-labeled peptide. In Example 6, the potency of compounds against α4β7 is measured in the cell-based ligand binding assay (LBA), using RPMI 8866 cells incubated with the compound samples in competition with soluble MAdCAM-1 ligand. In Example 7, activity of compounds is evaluated in a cell adhesion assay that mechanistically tests what occurs in vivo when trafficking cells utilize α4β7 to adhere to MAdCAM-1 expressing HEVs of the gut during the extravasation process. In the cell adhesion assay of Example 7, a MAdCAMI1-(Fc) is coated on plastic, and α4β7 expressing cells (RPMI-8866) are allowed to adhere to the coated surface in the presence of the test compounds. Next, the force of washing with buffer is applied to cells thereby testing the strength of that adhesion. Unattached cells are removed and the remaining adherent cells are quantified.
# Example 7 describes a cell adhesion assay.
# To each well of a 96 well plate, 100 ug of recombinant human MAdCAM in 100 ul PBS is added and incubated overnight at 4° C. After incubation MAdCAM is removed by aspiration and 200 ul of PBS+1% BSA is added to block the plate for 2 hours at 37° C. and 5% CO2. During this incubation dilution curves of compound are made in 100% DMSO in 96 well V bottom plates. 1.75 ul of diluted compounds are then transferred to a new 96 well U bottom plate containing 20 ul of assay media (phosphate free DMEM+25 mM HEPES+1% BSA). To this an additional 155 ul of assay media is added with mixing by pipetting up and down. This mixture is allowed to incubate for 15 minutes at 37° C. and 5% CO2. After incubation 175 ul of assay media containing 2e6/mL RPMI8866 cells is added to compound containing wells without mixing and plate is allowed to incubate for another 15 minutes at 37° C. and 5% CO2. During this incubation MAdCAM coated plates are removed from incubator and washed twice with 200 ul PBS+0.1% BSA. […] This plate is then incubated at 37° C. and 5% CO2 for 1 hour. After incubation plates are washed twice with 200 ul and once with 50 ul of phenol free RPMI+1% BSA. A final 50 ul of phenol free RPMI+1% BSA is added to wells after last wash. Next 50 ul of Promega cell titer glow is added to the wells. Plate is incubated on shaker for 2 minutes at 200 RPM followed by another 8 minutes off shaker before having the luminescence read on a Biotek Citation 5 plate reader. Raw data is converted to % inhibition compared to bottom of curve and analyzed using a 4-parameter non linear curve in Prism to determine IC50 and IC90.
SMILES,IC50 (Table 4 comparative compounds) [nM],IC50 (Table 3) [nM]
Cc1cccc(C)c1-c1cccc([C@H](CC(=O)O)NC(=O)[C@H](CC(C)C)n2cccc(CCN(C)C)c2=O)c1,> 100,–
CC(C)C[C@@H](C(=O)N[C@@H](CC(=O)O)c1ccc(-c2ccc(F)cc2)cc1)n1cc(CCN(C)C)c(C(F)(F)F)cc1=O,> 500,–
CC(C)C[C@@H](C(=O)N[C@@H](CC(=O)O)c1ccc(-c2ccc(F)cc2)cc1)n1cc(CCN2CC(F)C2)cc(F)c1=O,> 500,–
CC(C)C[C@@H](C(=O)N[C@@H](CC(=O)O)c1ccc(-c2ccccc2)cc1)n1cc(CCN2CC(F)C2)cc(F)c1=O,> 500,–
Cc1ccccc1-c1cccc([C@H](CC(=O)O)NC(=O)[C@H](CC(C)C)n2cccc(C)c2=O)c1,> 500,–
CC(C)C[C@@H](C(=O)N[C@@H](CC(=O)O)c1ccc(-c2ccccc2)cc1)n1cc(CCN(C)C)c(C(F)(F)F)cc1=O,> 500,–
Cc1ccccc1-c1cc([C@H](CC(=O)O)NC(=O)[C@H](CC(C)C)n2ccccc2=O)ccc1C,> 500,–
Cc1ccccc1-c1cccc([C@H](CC(=O)O)NC(=O)[C@H](CC(C)C)n2ccncc2=O)c1,> 500,–
COc1cccc(F)c1-c1cccc([C@H](CC(=O)O)NC(=O)[C@H](CC(C)C)n2cnc3ccccc3c2=O)c1,> 500,–
Cc1ccccc1-c1cccc([C@H](CC(=O)O)NC(=O)[C@H](CC(C)C)n2ccccc2=O)c1,> 500,–
Cc1ccccc1-c1cc([C@H](CC(=O)O)NC(=O)C(CC(C)C)n2ccccc2=O)ccn1 (stereo partly drawn),> 500,–
COc1ccc([C@H](CC(=O)O)NC(=O)C(CC(C)C)n2ccccc2=O)cc1-c1ccccc1C (stereo partly drawn),> 500,–
Cc1ccc([C@@H](C(=O)N[C@@H](CC(=O)O)c2cncc(-c3c(C)cccc3C)c2)N2CC(C)CCC2=O)cc1 (stereo partly drawn),> 500,–
Cc1cccc(C)c1-c1cc([C@H](CC(=O)O)NC(=O)[C@H](CC(C)C)n2ccccc2=O)ccn1,> 500,–
Cc1ccccc1-c1cc([C@H](CC(=O)O)NC(=O)C(CC(C)C)n2ccccc2=O)ccc1C#N (stereo partly drawn),> 500,–
COC[C@@H](C(=O)N[C@@H](CC(=O)O)c1cccc(-c2c(C)cccc2C)c1)n1ccc(C)cc1=O,> 500,–
Cc1cccc(C)c1-c1cncc([C@H](CC(=O)O)NC(=O)[C@H](CC(C)C)n2ccccc2=O)c1,> 100,–
"Cc1cc(C)c(-c2cc(C)c(F)c([C@H](CC(=O)O)NC(=O)C(CC(C)C)n3cc(CCN(C)C)c(C(F)(F)F)cc3=O)c2)c(C)c1 (single isomer, unassigned) [AC-P2]",–,< 5
"Cc1cc(-c2c(C)ccc(F)c2C)cc([C@H](CC(=O)O)NC(=O)C(CC(C)C)n2cc(CCN3CCC3)c(C(F)(F)F)cc2=O)c1F (single isomer, unassigned) [AF-P2]",–,< 5
"COc1ccc(C)c(-c2cc(C)c(F)c([C@H](CC(=O)O)NC(=O)C(CC(C)C)n3cc(CCN4CCC4)c(C(F)(F)F)cc3=O)c2)c1C (single isomer, unassigned) [AG-P2]",–,< 5
"Cc1cc(-c2c(C)cccc2C)cc([C@H](CC(=O)O)NC(=O)C(CC(C)C)n2cc(CCN3CC(F)C3)cc(F)c2=O)c1F (single isomer, unassigned) [AV-P2]",–,< 5
"Cc1cccc(C)c1-c1cc([C@H](CC(=O)O)NC(=O)C(CC(C)C)n2cc(CCN3CCC3)c(C(F)(F)F)cc2=O)c(F)c(C(F)(F)F)c1 (single isomer, unassigned) [G-P2]",–,< 5
Cc1cccc(C)c1-c1cccc([C@H](CC(=O)O)NC(=O)[C@H](CC(C)C)n2cc(CN3CC(F)C3)ccc2=O)c1 [drawing 585],> 50,–
Cc1cccc(C)c1-c1cccc([C@H](CC(=O)O)NC(=O)[C@H](CC(C)C)n2cc(CN3CC(F)C3)ccc2=O)c1 [drawing 589],> 50,–
Cc1cccc(C)c1-c1cccc([C@H](CC(=O)O)NC(=O)[C@H](CC(C)C)n2cc(CN3CC(F)C3)ccc2=O)c1 [drawing 594],> 50,–

# The remaining lines, values ahead:
IC50 (Table 4 comparative compounds) [nM],IC50 (Table 3) [nM],SMILES
5 to 10,–,Cc1cccc(C)c1-c1cccc([C@H](CC(=O)O)NC(=O)[C@H](CC(C)C)n2cc(CCN(C)C)ccc2=O)c1
10 to 50,–,Cc1cccc(C)c1-c1cccc([C@H](CC(=O)O)NC(=O)[C@H](CC(C)C)n2ccc(CCN(C)C)cc2=O)c1
10 to 50,–,Cc1cccc(C)c1-c1cccc([C@H](CC(=O)O)NC(=O)[C@H](CC(C)C)n2cc(CN3CC[C@@H](F)C3)ccc2=O)c1
10 to 50,–,Cc1cccc(C)c1-c1cncc([C@H](CC(=O)O)NC(=O)[C@H](CC(C)C)n2ccc(C(F)(F)F)cc2=O)c1
10 to 50,–,Cc1ccn([C@@H](CC(C)C)C(=O)N[C@@H](CC(=O)O)c2cncc(-c3c(C)cccc3C)c2)c(=O)c1
> 50,–,Cc1cccc(C)c1-c1cncc([C@H](CC(=O)O)NC(=O)C(CC(C)C)n2cc(C(F)(F)F)ccc2=O)c1 (stereo partly drawn)
> 50,–,Cc1cccc(C)c1-c1cncc([C@H](CC(=O)O)NC(=O)[C@H](CC(C)C)n2cc(CN3CC(F)C3)ccc2=O)c1
> 50,–,Cc1cccc(C)c1-c1cncc([C@H](CC(=O)O)NC(=O)[C@H](CC(C)C)N2CC[C@@H](C(F)(F)F)CC2=O)c1
> 50,–,Cc1cccc(C)c1-c1cccc([C@H](CC(=O)O)NC(=O)[C@H](CC(C)C)n2cc(CN3CC(F)C3)ccc2=O)c1 [drawing 572]
> 50,–,Cc1cccc(C)c1-c1cccc([C@H](CC(=O)O)NC(=O)[C@H](CC(C)C)n2cc(CN3CC(F)C3)ccc2=O)c1 [drawing 577]
< 5,–,Cc1cccc(C)c1-c1cccc([C@H](CC(=O)O)NC(=O)[C@H](CC(C)C)n2cc(CN3CC(F)C3)ccc2=O)c1 [drawing 599]
